Test results: patent publication US20170008921A1, “C-3 NOVEL TRITERPENONE WITH C-28 REVERSE AMIDE DERIVATIVES AS HIV INHIBITORS” (HETERO RESEARCH FOUNDATION, priority 2015, published 2017)

How the values were obtained:
[1] = Single dose oral pharmacokinetic study; format: in vivo; conditions: mouse, Mice oral PK @30 mg/kg, plasma, vehicle 10% Solutol+20% PEG; for AUC(0-t): read-out: AUC0-t; for Cmax: read-out: Cmax
Description: The test item was administered through oral route to animals (rat/mice) at 30 mg/kg dose in a suitable vehicle (10% Solutol+20% PEG) at 10 ml/kg dose volume. Blood samples (˜50 μL at each time point) were collected from retro-orbital plexus using K3 EDTA as anticoagulant in eppendorf tubes at defined time intervals 30 minutes, 1 hour, 2 hour, 4 hour, 8 hour, 24 hour & 48 hour under light ether anaesthesia. The samples were centrifuged at 3500×g to separate plasma and stored at −80° C. until analysis. Plasma 25 μl for Mice were processed as per described in sample preparation.
Standard solutions of the test compound 1 mg/mL solutions were prepared in DMSO and further dilutions were made in methanol. […] To the test compound plasma extraction was carried out using Acetonitrile precipitation. After reconstitution with solvent (50% Acetonitrile in Buffer) samples were analyzed by LCMSMS to get the concentrations to calculate PK Parameters.

[2] = Cyto-toxicity (MTT assay); format: cell-based

Structure (SMILES)	AUC(0-t) [1]	Cmax [1]	viability at 4 days, 0.01 µM [2]	viability at 4 days, 0.1 µM [2]	viability at 4 days, 1 µM [2]	viability at 4 days, 0.001 µM [2]	viability at 4 days, 0.003 µM [2]
Cc1ccc(-c2nc3cc(C(=O)NC(C)(C)C(=O)N[C@@]45CC[C@]6(C)[C@H](CC[C@@H]7[C@@]8(C)CC[C@H](OC(=O)[C@H]9C[C@@H](C(=O)O)C9(C)C)C(C)(C)[C@@H]8CC[C@]76C)C4=C(C(C)C)C(=O)C5)ccc3[nH]2)cn1 [Example 13, (1R,3S)-3-((((3aR,5aR,5bR,7aR,9S,11aR,11bR,13aS)-1-isopropyl-5a,5b,8,8,11a-pentamethyl-3a-(2-methyl-2-(2-(6-methylpyridin-3-yl)-1H-benzo[d]imidazole-5-carboxamido)propanamido)-2-oxo-3,3a,4,5,5a,5b,6,7,7a,8,9,10,11,11a,11b,12, 13,13a-octadecahydro-2H-cyclopenta[a]chrysen-9-yl)oxy)carbonyl)-2,2-dimethylcyclobutane-1-carboxylic acid]	18.2 µg·h/mL	2.72 µg/mL	45%	10%	4%		
Cc1nc(C)c(C(=O)NC(C)(C)C(=O)N[C@@]23CC[C@]4(C)[C@H](CC[C@@H]5[C@@]6(C)CC[C@H](OC(=O)[C@H]7C[C@@H](C(=O)O)C7(C)C)C(C)(C)[C@@H]6CC[C@]54C)C2=C(C(C)C)C(=O)C3)s1 [Example 14, (1R,3S)-3-((((3aR,5aR,5bR,7aR,9S,11aR,11bR,13aS)-3a-(2-(2,4-dimethylthiazole-5-carboxamido)-2-methylpropanamido)-1-isopropyl-5a,5b,8,8,11a-pentamethyl-2-oxo-3,3a,4,5,5a,5b,6,7,7a,8,9,10,11,11a,11b,12,13,13a-octadecahydro-2H-cyclopenta[a]chrysen-9-yl)oxy)carbonyl)-2,2-dimethylcyclobutane-1-carboxylic acid]	377 µg·h/mL	26.8 µg/mL	44%	8%	2%		
CC(C)C1=C2[C@H]3CC[C@@H]4[C@@]5(C)CC[C@H](OC(=O)[C@H]6C[C@@H](C(=O)O)C6(C)C)C(C)(C)[C@@H]5CC[C@@]4(C)[C@]3(C)CC[C@@]2(NC(=O)C(C)(C)NC(=O)c2ccc3[nH]c(-c4cnccn4)nc3c2)CC1=O [Example 15, (1R,3S)-3-((((3aR,5aR,5bR,7aR,9S,11aR,11bR,13aS)-1-isopropyl-5a,5b,8,8,11a-pentamethyl-3a-(2-methyl-2-(2-(pyrazin-2-yl)-1H-benzo[d]imidazole-5-carboxamido)propanamido)-2-oxo-3,3a,4,5,5a,5b,6,7,7a,8,9,10,11,11a,11b,12,13,13a-octadecahydro-2H-cyclopenta[a]chrysen-9-yl)oxy)carbonyl)-2,2-dimethylcyclobutane-1-carboxylic acid]	141 µg·h/mL	12.8 µg/mL	44%	8%	2%		
CC(C)C1=C2[C@H]3CC[C@@H]4[C@@]5(C)CC[C@H](OC(=O)[C@H]6C[C@@H](C(=O)O)C6(C)C)C(C)(C)[C@@H]5CC[C@@]4(C)[C@]3(C)CC[C@@]2(NC(=O)C(C)(C)NC(=O)c2cc(C(C)C)n[nH]2)CC1=O [Example 17, (1R,3S)-3-((((3aR,5aR,5bR,7aR,9S,11aR,11bR,13aS)-1-isopropyl-3a-(2-(3-isopropyl-1H-pyrazole-5-carboxamido)-2-methylpropanamido)-5a,5b,8,8, 11a-pentamethyl-2-oxo-3,3a,4,5,5a,5b,6,7,7a,8,9,10,11,11a,11b,12,13,13a-octadecahydro-2H-cyclopenta[a]chrysen-9-yl)oxy)carbonyl)-2,2-dimethylcyclobutane-1-carboxylic acid]	333 µg·h/mL	28.6 µg/mL	26%			81%	62%
CC(C)C1=C2[C@H]3CC[C@@H]4[C@@]5(C)CC[C@H](OC(=O)[C@H]6C[C@@H](C(=O)O)C6(C)C)C(C)(C)[C@@H]5CC[C@@]4(C)[C@]3(C)CC[C@@]2(NC(=O)C(C)(C)NC(=O)c2ccc(N3CCOCC3)cc2)CC1=O [Example 18, (1R,3S)-3-((((3aR,5aR,5bR,7aR,9S,11aR,11bR,13aS)-1-isopropyl-5a,5b,8,8,11a-pentamethyl-3a-(2-methyl-2-(4-morpholinobenzamido)propanamido)-2-oxo-3,3a,4,5,5a,5b,6,7,7a,8,9,10,11,11a,11b,12,13,13a-octadecahydro-2H-cyclopenta[a]chrysen-9-yl)oxy)carbonyl)-2,2-dimethylcyclobutane-1-carboxylic acid]	236 µg·h/mL	15.9 µg/mL	29%			78%	61%
Cc1noc(C)c1C(=O)NC(C)(C)C(=O)N[C@@]12CC[C@]3(C)[C@H](CC[C@@H]4[C@@]5(C)CC[C@H](OC(=O)[C@H]6C[C@@H](C(=O)O)C6(C)C)C(C)(C)[C@@H]5CC[C@]43C)C1=C(C(C)C)C(=O)C2 [Example 19, (1R,3S)-3-((((3aR,5aR,5bR,7aR,9S,11aR,11bR,13aS)-3a-(2-(3,5-dimethylisoxazole-4-carboxamido)-2-methylpropanamido)-1-isopropyl-5a,5b,8,8,11a-pentamethyl-2-oxo-3,3a,4,5,5a,5b,6,7,7a,8,9,10,11,11a,11b,12,13,13a-octadecahydro-2H-cyclopenta[a]chrysen-9-yl)oxy)carbonyl)-2,2-dimethylcyclobutane-1-carboxylic acid]	93 µg·h/mL	13.9 µg/mL	40%			79%	65%
Cc1cn(-c2ccc(C(=O)NC(C)(C)C(=O)N[C@@]34CC[C@]5(C)[C@H](CC[C@@H]6[C@@]7(C)CC[C@H](OC(=O)[C@H]8C[C@@H](C(=O)O)C8(C)C)C(C)(C)[C@@H]7CC[C@]65C)C3=C(C(C)C)C(=O)C4)cc2)cn1 [Example 20, (1R,3S)-3-((((3aR,5aR,5bR,7aR,9S,11aR,11bR,13aS)-1-isopropyl-5a,5b,8,8,11a-pentamethyl-3a-(2-methyl-2-(4-(4-methyl-1H-imidazol-1-yl)benz amido)propanamido)-2-oxo-3,3a,4,5,5a,5b,6,7,7a,8,9,10,11,11a,11b,12,13,13a-octadeca hydro-2H-cyclopenta[a]chrysen-9-yl)oxy)carbonyl)-2,2-dimethylcyclobutane-1-carboxylic acid]	236 µg·h/mL	19 µg/mL	40%			91%	85%
CC(C)C1=C2[C@H]3CC[C@@H]4[C@@]5(C)CC[C@H](OC(=O)[C@@H]6C[C@H](C(=O)O)C6(C)C)C(C)(C)[C@@H]5CC[C@@]4(C)[C@]3(C)CC[C@@]2(NC(=O)C(C)(C)NC(=O)c2ccc(Cl)cc2)CC1=O [Example 21, (1S,3R)-3-((((3aR,5aR,5bR,7aR,9S,11aR,11bR,13aS)-3a-(2-(4-chlorobenzamido)-2-methylpropanamido)-1-isopropyl-5a,5b,8,8,11a-pentamethyl-2-oxo-3,3a,4,5,5a,5b,6,7,7a,8,9,10,11,11a,11b,12,13,13a-octadecahydro-2H-cyclopenta[a]chrysen-9-yl)oxy)carbonyl)-2,2-dimethylcyclobutane-1-carboxylic acid]	191 µg·h/mL	16 µg/mL	36%	7%	6%		
CC(C)C1=C2[C@H]3CC[C@@H]4[C@@]5(C)CC[C@H](OC(=O)[C@H]6C[C@@H](C(=O)O)C6(C)C)C(C)(C)[C@@H]5CC[C@@]4(C)[C@]3(C)CC[C@@]2(NC(=O)C(C)(C)NC(=O)c2ccc(F)cc2)CC1=O [Example 22, (1R,3S)-3-((((3aR,5aR,5bR,7aR,9S,11aR,11bR,13aS)-3a-(2-(4-fluorobenzamido)-2-methylpropanamido)-1-isopropyl-5a,5b,8,8,11a-pentamethyl-2-oxo-3,3a, 4,5,5a,5b,6,7,7a,8,9,10,11,11a,11b,12,13,13a-octadecahydro-2H-cyclopenta[a]chrysen-9-yl)oxy)carbonyl)-2,2-dimethylcyclobutane-1-carboxylic acid]	490 µg·h/mL	23.6 µg/mL	21%	3%	3%		
Cc1ccc(C(=O)NC(C)(C)C(=O)N[C@@]23CC[C@]4(C)[C@H](CC[C@@H]5[C@@]6(C)CC[C@H](OC(=O)[C@H]7C[C@@H](C(=O)O)C7(C)C)C(C)(C)[C@@H]6CC[C@]54C)C2=C(C(C)C)C(=O)C3)cc1 [Example 23, (1R,3S)-3-((((3aR,5aR,5bR,7aR,9S,11aR,11bR,13aS)-1-isopropyl-5a,5b,8,8,11a-pentamethyl-3a-(2-methyl-2-(4-methylbenzamido)propanamido)-2-oxo-3,3a,4,5,5a,5b,6,7,7a,8,9,10,11,11a,11b,12,13,13a-octadecahydro-2H-cyclopenta[a]chrysen-9-yl)oxy)carbonyl)-2,2-dimethylcyclobutane-1-carboxylic acid]	590 µg·h/mL	29.7 µg/mL	34%	8%	4%		
